PubChem BioAssay (NCI)
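The compound was tested at five concentrations on cells cultured in 96-well plates, with a 48-hour exposure period. TGI is the concentration that stops growth completely.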

Tests used:
Test in all cases: NCI-60 cell line screen, 48 h
786-0 renal = system: 786-0 renal
A498 renal = system: A498 renal
A549 NSCLC = system: A549 NSCLC
ACHN renal = system: ACHN renal
BT-549 breast = system: BT-549 breast
CAKI-1 renal = system: CAKI-1 renal
CCRF-CEM leukemia = system: CCRF-CEM leukemia
COLO 205 colon = system: COLO 205 colon
DU-145 prostate = system: DU-145 prostate
EKVX NSCLC = system: EKVX NSCLC
HCC-2998 colon = system: HCC-2998 colon
HCT-116 colon = system: HCT-116 colon
HCT-15 colon = system: HCT-15 colon
HL-60(TB) leukemia = system: HL-60(TB) leukemia
HOP-62 NSCLC = system: HOP-62 NSCLC
HOP-92 NSCLC = system: HOP-92 NSCLC
HS 578T breast = system: HS 578T breast
HT29 colon = system: HT29 colon
IGROV1 ovarian = system: IGROV1 ovarian
K-562 leukemia = system: K-562 leukemia
KM12 colon = system: KM12 colon
LOX IMVI melanoma = system: LOX IMVI melanoma
M14 melanoma = system: M14 melanoma
MALME-3M melanoma = system: MALME-3M melanoma
MCF7 breast = system: MCF7 breast
MDA-MB-231 breast = system: MDA-MB-231 breast
MDA-MB-435 = system: MDA-MB-435
MDA-N = system: MDA-N
MOLT-4 leukemia = system: MOLT-4 leukemia
NCI-H226 lung = system: NCI-H226 lung
NCI-H23 lung = system: NCI-H23 lung
NCI-H460 lung = system: NCI-H460 lung
NCI-H522 lung = system: NCI-H522 lung
NCI/ADR-RES ovarian = system: NCI/ADR-RES ovarian
OVCAR-3 ovarian = system: OVCAR-3 ovarian
OVCAR-4 ovarian = system: OVCAR-4 ovarian
OVCAR-5 ovarian = system: OVCAR-5 ovarian
OVCAR-8 ovarian = system: OVCAR-8 ovarian
PC-3 prostate = system: PC-3 prostate
RPMI-8226 leukemia = system: RPMI-8226 leukemia
RXF 393 renal = system: RXF 393 renal
SF-268 CNS = system: SF-268 CNS
SF-295 CNS = system: SF-295 CNS
SF-539 CNS = system: SF-539 CNS
SK-MEL-2 melanoma = system: SK-MEL-2 melanoma
SK-MEL-28 melanoma = system: SK-MEL-28 melanoma
SK-MEL-5 melanoma = system: SK-MEL-5 melanoma
SK-OV-3 ovarian = system: SK-OV-3 ovarian
SN12C renal = system: SN12C renal
SNB-19 CNS = system: SNB-19 CNS
SR leukemia = system: SR leukemia
SW-620 colon = system: SW-620 colon
T-47D breast = system: T-47D breast
TK-10 renal = system: TK-10 renal
U251 CNS = system: U251 CNS
UACC-257 melanoma = system: UACC-257 melanoma
UACC-62 melanoma = system: UACC-62 melanoma
UO-31 renal = system: UO-31 renal

Measured: TGI

CCCCCCc1nn2c(-c3ccncc3)nnc2s1
2.89 µM: UO-31 renal
> 10 µM: all other assays above

CN1CCN(CC(=O)Nc2cccc3ccccc23)CC1
> 31.6 µM: HT29 colon
> 100 µM: all other assays above

O=C1c2ccc(O)cc2OC(c2cc(O)c(O)c(O)c2)C1O (stereo not drawn)
39.9 µM: SF-295 CNS
45.4 µM: 786-0 renal
52.9 µM: NCI/ADR-RES ovarian
51.7 µM: MOLT-4 leukemia
58.7 µM: NCI-H522 lung
70.3 µM: SW-620 colon
51.9 µM: MCF7 breast
48.7 µM: U251 CNS
34 µM: MDA-N
38.4 µM: OVCAR-8 ovarian
67.1 µM: KM12 colon
39.3 µM: EKVX NSCLC
52.7 µM: SF-539 CNS
48.9 µM: ACHN renal
36.6 µM: SN12C renal
73.5 µM: A498 renal
43.2 µM: MDA-MB-435
83.3 µM: COLO 205 colon
85.9 µM: T-47D breast
69.3 µM: TK-10 renal
48 µM: BT-549 breast
38.5 µM: LOX IMVI melanoma
39.1 µM: IGROV1 ovarian
56.5 µM: SR leukemia
43.9 µM: HT29 colon
48.4 µM: HL-60(TB) leukemia
39.7 µM: MDA-MB-231 breast
41 µM: HCT-116 colon
39.5 µM: NCI-H460 lung
55.9 µM: CCRF-CEM leukemia
48.6 µM: RPMI-8226 leukemia
not listed: K-562 leukemia
> 100 µM: all other assays above
